Among the data in patent publication US7521418B2, “Use of a polyene macrolide antifungal agent in combination with a glycopeptide antibacterial agent” (Theravance, Inc., priority 2003, dated 2009) are FICI values, retold here.

This assay has as its system M. circinelloides ATCC 26759. In words: Checkerboard MIC assay, FICI. It counts as cell-based, Mucor circinelloides. The settings on record: combination with Compound 1. The text has this:
The following assay was used to determine the minimum inhibitory concentration (MIC) and fractional inhibitory concentration index (FICI) for combinations of an antifungal agent and a glycopeptide antibacterial agent. This assay and methods for calculating FICI are well known in the art. See, for example, Eliopoulos, E. G. and R. Moellering, Jr. “Antimicrobial Combinations” in Antibiotics in Laboratory Medicine, edited by V. Lorian, 4th Ed., Williams & Wilkins, Baltimore, MD, pp. 330-396 (1996); […] et al., Antimicrobial Agents and Chemotherapy 47(4):1416-1418 (2003); or […] et al., Antimicrobial Agents and Chemotherapy 46(10):3323-3326 (2002). […] The MIC of the glycopeptide antibacterial agent determined from this experiment was used in FIC calculations. […]

As for `C[C@@H]1[C@H](O)[C@@H](C)/C=C/C=C/C=C/C=C/C=C/C=C/C=C/[C@H](O[C@@H]2O[C@H](C)[C@@H](O)[C@H](N)[C@@H]2O)C[C@@H]2O[C@](O)(C[C@@H](O)C[C@@H](O)[C@H](O)CC[C@@H](O)C[C@@H](O)CC(=O)O[C@H]1C)C[C@H](O)[C@H]2C(=O)O` [Amphotericin B], the FICI is recorded as 0.26. `C[C@@H]1[C@H](O)[C@@H](C)/C=C/C=C/CC/C=C/C=C/C=C/C=C/C(O[C@H]2O[C@H](C)[C@@H](O)[C@H](N)[C@@H]2O)CC2O[C@](O)(CC(O)C(O)CCC(O)CC(O)CC(O)CC(=O)O[C@H]1C)CC(O)C2C(=O)O` (some centres unmarked) [Nystatin]: the FICI was 0.28.
